Where a name gives a salt, the structure may show the parent alone.
Key:
[1] = target: CtermHisTag-mEGFR Wild type (Homo sapiens, UniProt P00533); test: biochemical
[2] = target: T1, Phospho-EGFR (Tyr1068) in A431 cells (Homo sapiens, UniProt P00533); test: HTRF pEGFR/total EGFR in A431 cells with EGF stimulation; format: cell-based; conditions: ratio pEGFR/total EGFR, compound 2.5 hours then 100 ng/ml EGF 30 mins
T1 construct: endogenous in cells; host or cells: A431
How it was run: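 A431 cells were plated at 20,000 per well, allowed 24 h to adhere, then given compound for 2.5 h (0.1% DMSO final). They were then stimulated with 100 ng/ml EGF for 30 min and lysed. HTRF measured Tyr1068-phospho and total EGFR at 665/620 nm, with pEGFR/total EGFR expressed as % of the 0 μM control.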

[3] = target: T2, Phospho-EGFR (Tyr1068) in H1975 cells (Homo sapiens, UniProt P00533, L858R/T790M); test: HTRF pEGFR/total EGFR in H1975 cells; format: cell-based; conditions: ratio pEGFR/total EGFR, compound 3 hours
T2 construct: host or cells: H1975
T2 sequence (P00533 25-1210 T790M/L858R): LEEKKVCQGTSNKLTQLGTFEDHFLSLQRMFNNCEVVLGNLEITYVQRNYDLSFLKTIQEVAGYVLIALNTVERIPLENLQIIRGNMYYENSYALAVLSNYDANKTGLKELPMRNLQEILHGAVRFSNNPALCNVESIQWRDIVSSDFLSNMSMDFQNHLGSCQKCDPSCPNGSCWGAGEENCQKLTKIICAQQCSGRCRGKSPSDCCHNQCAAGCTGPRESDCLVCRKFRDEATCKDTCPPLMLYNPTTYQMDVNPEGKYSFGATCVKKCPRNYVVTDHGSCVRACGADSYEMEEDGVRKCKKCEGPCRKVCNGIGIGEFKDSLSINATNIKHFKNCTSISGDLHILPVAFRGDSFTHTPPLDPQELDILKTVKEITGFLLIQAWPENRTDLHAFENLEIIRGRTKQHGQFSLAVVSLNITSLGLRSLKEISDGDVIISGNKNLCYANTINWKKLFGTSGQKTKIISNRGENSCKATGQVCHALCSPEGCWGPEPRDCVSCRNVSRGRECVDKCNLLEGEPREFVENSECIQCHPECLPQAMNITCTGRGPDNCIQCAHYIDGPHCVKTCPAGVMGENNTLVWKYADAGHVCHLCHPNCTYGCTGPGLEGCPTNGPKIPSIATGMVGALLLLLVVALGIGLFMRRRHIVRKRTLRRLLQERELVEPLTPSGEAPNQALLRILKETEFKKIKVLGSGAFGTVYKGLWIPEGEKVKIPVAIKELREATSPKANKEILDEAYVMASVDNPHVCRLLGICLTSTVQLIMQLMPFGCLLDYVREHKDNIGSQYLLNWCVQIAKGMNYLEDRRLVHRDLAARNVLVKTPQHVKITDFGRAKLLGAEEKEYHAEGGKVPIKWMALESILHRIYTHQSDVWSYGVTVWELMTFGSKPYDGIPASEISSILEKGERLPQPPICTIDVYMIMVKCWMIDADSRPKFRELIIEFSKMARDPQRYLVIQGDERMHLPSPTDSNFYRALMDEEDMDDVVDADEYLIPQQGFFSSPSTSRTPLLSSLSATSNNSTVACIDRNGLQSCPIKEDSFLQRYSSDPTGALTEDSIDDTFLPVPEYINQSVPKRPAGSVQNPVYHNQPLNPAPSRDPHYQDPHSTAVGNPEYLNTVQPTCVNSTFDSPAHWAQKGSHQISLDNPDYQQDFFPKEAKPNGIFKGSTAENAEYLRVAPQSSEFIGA
How it was run: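 H1975 cells (EGFR L858R/T790M) treated 3 h with compound in 0.1% DMSO, in duplicate, 24 h after plating. Lysates assayed by HTRF for pEGFR (Tyr1068) and total EGFR at 665/620 nm; values are pEGFR/total EGFR ratio as percent of 0 μM control.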

[4] = target: T3, Phospho-EGFR (Tyr1068) in H1975 C797S cells (CRISPR-edited EGFR C797S) (Homo sapiens, UniProt P00533, C797S/L858R/T790M); test: HTRF pEGFR/total EGFR in H1975 C797S cells; format: cell-based; conditions: ratio pEGFR/total EGFR, compound 3 hours
T3 construct: host or cells: H1975 C797S (CRISPR-edited)
T3 sequence (P00533 25-1210 T790M/C797S/L858R): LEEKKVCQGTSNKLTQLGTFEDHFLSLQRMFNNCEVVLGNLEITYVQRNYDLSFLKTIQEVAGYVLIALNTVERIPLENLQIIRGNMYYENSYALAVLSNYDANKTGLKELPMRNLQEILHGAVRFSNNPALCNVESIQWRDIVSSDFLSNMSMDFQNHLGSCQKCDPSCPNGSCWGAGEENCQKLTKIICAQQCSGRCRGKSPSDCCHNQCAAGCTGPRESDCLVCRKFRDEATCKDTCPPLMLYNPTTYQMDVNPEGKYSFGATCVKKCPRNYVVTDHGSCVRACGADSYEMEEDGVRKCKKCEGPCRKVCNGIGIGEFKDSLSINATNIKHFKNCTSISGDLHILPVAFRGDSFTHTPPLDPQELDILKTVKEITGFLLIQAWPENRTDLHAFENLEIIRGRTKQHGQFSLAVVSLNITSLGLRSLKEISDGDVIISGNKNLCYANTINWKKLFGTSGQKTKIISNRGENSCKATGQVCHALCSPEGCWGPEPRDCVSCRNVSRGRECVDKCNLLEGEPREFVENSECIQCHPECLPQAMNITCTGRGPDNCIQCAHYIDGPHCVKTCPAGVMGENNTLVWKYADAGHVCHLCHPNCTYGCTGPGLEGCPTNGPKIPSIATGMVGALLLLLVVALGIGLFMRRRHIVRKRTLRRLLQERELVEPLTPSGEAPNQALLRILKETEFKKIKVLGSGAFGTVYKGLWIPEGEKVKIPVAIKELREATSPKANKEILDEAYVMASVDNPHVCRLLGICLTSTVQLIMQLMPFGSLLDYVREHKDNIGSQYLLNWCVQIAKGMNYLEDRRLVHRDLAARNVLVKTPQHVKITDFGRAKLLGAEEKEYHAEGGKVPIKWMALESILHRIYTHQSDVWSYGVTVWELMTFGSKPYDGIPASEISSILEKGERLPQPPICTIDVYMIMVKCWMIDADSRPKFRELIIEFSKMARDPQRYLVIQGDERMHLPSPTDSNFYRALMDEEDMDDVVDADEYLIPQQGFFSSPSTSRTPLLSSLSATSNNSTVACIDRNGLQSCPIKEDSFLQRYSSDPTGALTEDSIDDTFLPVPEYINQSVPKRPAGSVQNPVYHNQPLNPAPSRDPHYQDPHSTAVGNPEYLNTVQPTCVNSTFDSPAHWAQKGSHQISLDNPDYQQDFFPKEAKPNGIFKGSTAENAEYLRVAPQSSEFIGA
How it was run: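 Adhered H1975 C797S cells got compound for 3 h in duplicate at 0.1% DMSO final, then were lysed 30 min at room temperature. HTRF kits quantified phospho-EGFR (Tyr1068) and total EGFR (665/620 nm); results are pEGFR/total EGFR ratio as percent of 0 μM control.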

T1 sequence (P00533 25-1210): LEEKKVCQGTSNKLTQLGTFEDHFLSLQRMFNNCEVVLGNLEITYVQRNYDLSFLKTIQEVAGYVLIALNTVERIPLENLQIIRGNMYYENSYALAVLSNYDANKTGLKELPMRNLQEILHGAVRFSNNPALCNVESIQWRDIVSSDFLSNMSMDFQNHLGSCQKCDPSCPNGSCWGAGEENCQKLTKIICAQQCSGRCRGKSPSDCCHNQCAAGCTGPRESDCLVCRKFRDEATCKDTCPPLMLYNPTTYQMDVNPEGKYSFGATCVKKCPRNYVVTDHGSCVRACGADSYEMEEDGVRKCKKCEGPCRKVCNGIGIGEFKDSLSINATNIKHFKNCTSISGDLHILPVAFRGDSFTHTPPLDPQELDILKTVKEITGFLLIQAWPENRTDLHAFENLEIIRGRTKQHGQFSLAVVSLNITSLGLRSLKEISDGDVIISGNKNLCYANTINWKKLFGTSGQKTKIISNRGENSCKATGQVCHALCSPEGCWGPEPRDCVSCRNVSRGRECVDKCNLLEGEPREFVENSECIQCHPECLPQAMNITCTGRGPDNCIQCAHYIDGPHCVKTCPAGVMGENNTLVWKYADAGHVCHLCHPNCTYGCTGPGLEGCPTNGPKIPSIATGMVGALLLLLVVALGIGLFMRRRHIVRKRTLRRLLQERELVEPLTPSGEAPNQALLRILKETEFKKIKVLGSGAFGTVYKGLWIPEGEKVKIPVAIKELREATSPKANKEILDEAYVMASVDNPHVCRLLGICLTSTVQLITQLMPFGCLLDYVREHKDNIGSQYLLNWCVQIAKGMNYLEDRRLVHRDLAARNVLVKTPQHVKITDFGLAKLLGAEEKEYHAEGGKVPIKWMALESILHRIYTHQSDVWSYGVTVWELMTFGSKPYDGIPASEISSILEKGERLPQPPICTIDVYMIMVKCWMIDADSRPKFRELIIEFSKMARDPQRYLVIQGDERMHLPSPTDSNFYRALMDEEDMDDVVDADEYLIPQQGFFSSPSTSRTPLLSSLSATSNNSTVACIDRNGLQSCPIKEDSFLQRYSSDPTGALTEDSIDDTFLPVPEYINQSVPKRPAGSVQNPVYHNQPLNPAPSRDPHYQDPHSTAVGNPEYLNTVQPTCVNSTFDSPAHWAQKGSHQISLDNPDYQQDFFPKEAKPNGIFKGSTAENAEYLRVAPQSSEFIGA
Sequence of CtermHisTag-mEGFR Wild type (P00533 whole entry): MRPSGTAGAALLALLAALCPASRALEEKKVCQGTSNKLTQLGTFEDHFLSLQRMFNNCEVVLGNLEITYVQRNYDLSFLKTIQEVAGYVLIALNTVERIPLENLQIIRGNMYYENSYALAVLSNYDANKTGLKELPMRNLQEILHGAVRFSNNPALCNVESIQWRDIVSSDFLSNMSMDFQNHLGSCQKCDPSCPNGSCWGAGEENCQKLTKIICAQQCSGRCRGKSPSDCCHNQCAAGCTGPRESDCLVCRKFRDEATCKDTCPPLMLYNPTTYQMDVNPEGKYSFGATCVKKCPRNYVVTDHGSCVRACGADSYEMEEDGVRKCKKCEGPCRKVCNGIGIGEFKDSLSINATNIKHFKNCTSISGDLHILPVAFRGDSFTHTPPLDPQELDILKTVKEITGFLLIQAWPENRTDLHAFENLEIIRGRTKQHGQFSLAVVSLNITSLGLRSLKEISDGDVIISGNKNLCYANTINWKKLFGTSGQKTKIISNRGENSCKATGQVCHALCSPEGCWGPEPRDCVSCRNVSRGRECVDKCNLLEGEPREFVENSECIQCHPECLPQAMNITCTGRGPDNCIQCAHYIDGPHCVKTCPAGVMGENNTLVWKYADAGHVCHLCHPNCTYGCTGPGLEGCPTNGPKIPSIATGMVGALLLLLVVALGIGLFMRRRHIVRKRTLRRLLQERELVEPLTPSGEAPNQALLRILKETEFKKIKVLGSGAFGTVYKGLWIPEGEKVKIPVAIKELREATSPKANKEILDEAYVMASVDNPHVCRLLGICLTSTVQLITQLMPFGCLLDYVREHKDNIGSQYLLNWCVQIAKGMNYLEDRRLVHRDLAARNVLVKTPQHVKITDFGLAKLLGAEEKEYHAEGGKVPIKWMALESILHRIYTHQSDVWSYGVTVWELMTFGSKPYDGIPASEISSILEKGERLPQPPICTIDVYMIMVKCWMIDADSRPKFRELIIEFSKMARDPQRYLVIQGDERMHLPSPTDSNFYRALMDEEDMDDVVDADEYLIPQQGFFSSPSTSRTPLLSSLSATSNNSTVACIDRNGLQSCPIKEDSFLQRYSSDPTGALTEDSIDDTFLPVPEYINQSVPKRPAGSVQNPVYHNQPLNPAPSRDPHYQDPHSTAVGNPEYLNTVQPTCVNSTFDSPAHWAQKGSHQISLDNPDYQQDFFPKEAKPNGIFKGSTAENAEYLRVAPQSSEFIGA

Q: Which IC50 [1] does the source give for C#Cc1cc(=O)n(CC2CCCC2)c2nc(Nc3ccc(N4CCN(C)CC4)cc3)ncc12 [Example 67, 8-(Cyclopentylmethyl)-5-ethynyl-2-((4-(4-methylpiperazin-1-yl)phenyl)amino)pyrido[2,3-d]pyrimidin-7(8H)-one] here?
A: Its IC50 is under 1000 nM.

Q: And the IC50 [2]?
A: The IC50 was 1000 to 3000 nM.

Q: What about the IC50 [3] of the same molecule?
A: The IC50 was under 500 nM.

Q: And the IC50 [4]?
A: The IC50 was under 500 nM.

Q: With C#Cc1cc(=O)n(C2CCCCC2)c2nc(Nc3ccc(N4CCN(C)CC4)cc3)ncc12 [Example 68, 8-Cyclohexyl-5-ethynyl-2-((4-(4-methylpiperazin-1-yl)phenyl)amino)pyrido[2,3-d]pyrimidin-7(8H)-one] as the molecule, how does the IC50 [1] read?
A: Its IC50 is under 1000 nM.

Q: And the IC50 [2]?
A: Its IC50 is 1000 to 3000 nM.

Q: What about the IC50 [3] of the same molecule?
A: The IC50 was under 500 nM.

Q: What about the IC50 [4] of the same molecule?
A: Its IC50 is 500 to 1000 nM.

Q: What does the source list for C#Cc1cc(=O)n(C2CCOCC2)c2nc(Nc3ccc(N4CCN(C)CC4)cc3)ncc12 [Example 69, 5-Ethynyl-2-((4-(4-methylpiperazin-1-yl)phenyl)amino)-8-(tetrahydro-2H-pyran-4-yl)pyrido[2,3-d]pyrimidin-7(8H)-one]?
A: IC50 [1]: < 1000 nM; IC50 [2]: > 3000 nM; IC50 [3]: < 500 nM; IC50 [4]: 1000 to 3000 nM

Q: Which results are given for C#Cc1cc(=O)n(CC2CCOC2)c2nc(Nc3ccc(N4CCN(C)CC4)cc3)ncc12 (stereo not drawn) [Example 70, 5-Ethynyl-2-((4-(4-methylpiperazin-1-yl)phenyl)amino)-8-((tetrahydrofuran-3-yl)methyl)pyrido[2,3-d]pyrimidin-7(8H)-one]?
A: IC50 [1]: < 1000 nM; IC50 [2]: > 3000 nM; IC50 [3]: < 500 nM; IC50 [4]: < 500 nM

Q: C#Cc1cc(=O)n(C[C@@H]2CCC(=O)N2)c2nc(Nc3ccc(N4CCN(C)CC4)cc3)ncc12 [Example 71, (S)-5-Ethynyl-2-((4-(4-methylpiperazin-1-yl)phenyl)amino)-8-((5-oxopyrrolidin-2-yl)methyl)pyrido[2,3-d]pyrimidin-7(8H)-one] was tested. Which IC50 [1] did it give?
A: Its IC50 is over 10000 nM.

Q: And the IC50 [2]?
A: The IC50 was over 3000 nM.

Q: And the IC50 [3]?
A: The IC50 was over 3000 nM.

Q: And the IC50 [4]?
A: The IC50 was over 3000 nM.

Q: What does the source list for C#Cc1cc(=O)n(CC2CCCO2)c2nc(Nc3ccc(N4CCN(C)CC4)cc3)ncc12 (stereo not drawn) [Example 72, 5-Ethynyl-2-((4-(4-methylpiperazin-1-yl)phenyl)amino)-8-((tetrahydrofuran-2-yl)methyl)pyrido[2,3-d]pyrimidin-7(8H)-one]?
A: IC50 [1]: < 1000 nM; IC50 [2]: > 3000 nM; IC50 [3]: 500 to 1000 nM; IC50 [4]: < 500 nM

Q: How did the IC50 [1] turn out when C#Cc1cc(=O)n(C2CCCC2O)c2nc(Nc3ccc(N4CCN(C)CC4)cc3)ncc12 (stereo not drawn) [Example 73, 5-Ethynyl-8-(2-hydroxycyclopentyl)-2-((4-(4-methylpiperazin-1-yl)phenyl)amino)pyrido[2,3-d]pyrimidin-7(8H)-one] was run?
A: The IC50 was 1000 to 10000 nM.

Q: What about the IC50 [2] of the same molecule?
A: Its IC50 is over 3000 nM.

Q: And the IC50 [3]?
A: Its IC50 is 500 to 1000 nM.

Q: What about the IC50 [4] of the same molecule?
A: Its IC50 is 1000 to 3000 nM.

Q: Which IC50 [1] does the source give for C#Cc1cc(=O)n(C(C)C)c2nc(Nc3ccc(N4CCN(C)CC4)cc3)ncc12 [Example 76, 5-Ethynyl-8-isopropyl-2-{[4-(4-methylpiperazin-1-yl)phenyl]amino}pyrido[2,3-d]pyrimidin-7-one] here?
A: The IC50 was under 1000 nM.

Q: What about the IC50 [2] of the same molecule?
A: Its IC50 is over 3000 nM.

Q: What about the IC50 [3] of the same molecule?
A: Its IC50 is under 500 nM.

Q: And the IC50 [4]?
A: The IC50 was 500 to 1000 nM.

Q: C#Cc1cc(=O)n([C@@H]2CCCN(C(=O)CC)C2)c2nc(Nc3ccc(N(C)CCN(C)C)cc3)ncc12 [Example 77, (R)-2-((4-((2-(Dimethylamino)ethyl)(methyl)amino)phenyl)amino)-5-ethynyl-8-(1-propionylpiperidin-3-yl)pyrido[2,3-d]pyrimidin-7(8H)-one trifluoroacetic acid salt] was tested. Which IC50 [1] did it give?
A: Its IC50 is over 10000 nM.

Q: And the IC50 [2]?
A: The IC50 was over 3000 nM.

Q: And the IC50 [3]?
A: The IC50 was over 3000 nM.

Q: What about the IC50 [4] of the same molecule?
A: Its IC50 is over 3000 nM.

Q: C#Cc1cc(=O)n(C2CCCC2)c2nc(Nc3ccc(N4CCN(C)CC4)cc3)ncc12 [Example 78, 8-cyclopentyl-5-ethynyl-2-((4-(4-methylpiperazin-1-yl)phenyl)amino)pyrido[2,3-d]pyrimidin-7(8H)-one] was tested. Which IC50 [1] did it give?
A: Its IC50 is under 1000 nM.

Q: And the IC50 [2]?
A: Its IC50 is over 3000 nM.

Q: And the IC50 [3]?
A: Its IC50 is under 500 nM.

Q: What about the IC50 [4] of the same molecule?
A: Its IC50 is under 500 nM.

Q: C#Cc1cc(=O)n([C@H]2CC[C@@H](NC(C)=O)CC2)c2nc(Nc3ccc(N(C)CCN(C)C)cc3)ncc12 [Example 79, N-[(1s,4s)-4-{2-[(4-{[2-(Dimethylamino)ethyl](methyl)amino}phenyl)amino]-5-ethynyl-7-oxopyrido[2,3-d]pyrimidin-8-yl}cyclohexyl]acetamide] was tested. Which IC50 [1] did it give?
A: The IC50 was under 1000 nM.

Q: What about the IC50 [2] of the same molecule?
A: Its IC50 is 1000 to 3000 nM.

Q: And the IC50 [3]?
A: The IC50 was under 500 nM.

Q: What about the IC50 [4] of the same molecule?
A: Its IC50 is under 500 nM.

Q: What does the source list for C#Cc1cc(=O)n([C@H]2CC[C@@H](CO)CC2)c2nc(Nc3ccc(N(C)CCN(C)C)cc3)ncc12 [Example 80, 2-[(4-{[2-(Dimethylamino)ethyl](methyl)amino}phenyl)amino]-5-ethynyl-8-[(1s,4s)-4-(hydroxymethyl)cyclohexyl]pyrido[2,3-d]pyrimidin-7-one]?
A: IC50 [1]: < 1000 nM; IC50 [2]: 1000 to 3000 nM; IC50 [3]: < 500 nM; IC50 [4]: 500 to 1000 nM

Q: With C#Cc1cc(=O)n([C@H]2CC[C@@H](NC(=O)CC)CC2)c2nc(Nc3ccc(N4CCN(C)CC4)cc3)ncc12 [Example 81, N-[(1s,4s)-4-(5-Ethynyl-2-{[4-(4-methylpiperazin-1-yl)phenyl]amino}-7-oxopyrido[2,3-d]pyrimidin-8-yl)cyclohexyl]propanamide] as the molecule, how does the IC50 [1] read?
A: The IC50 was under 1000 nM.

Q: And the IC50 [2]?
A: The IC50 was over 3000 nM.

Q: What about the IC50 [3] of the same molecule?
A: The IC50 was under 500 nM.

Q: And the IC50 [4]?
A: Its IC50 is under 500 nM.

Q: Which results are given for C#Cc1cc(=O)n([C@H]2CC[C@@H](NC(=O)C(C)C)CC2)c2nc(Nc3ccc(N4CCN(C)CC4)cc3)ncc12 [Example 82, 2-Methyl-N-[(1s,4s)-4-(5-ethynyl-2-{[4-(4-methylpiperazin-1-yl)phenyl]amino}-7-oxopyrido[2,3-d]pyrimidin-8-yl)cyclohexyl]propanamide]?
A: IC50 [1]: < 1000 nM; IC50 [2]: > 3000 nM; IC50 [3]: < 500 nM; IC50 [4]: < 500 nM

Q: C#Cc1cc(=O)n(-c2ccc(OC)cc2OC)c2nc(Nc3ccc(N(C)CCN(C)C)cc3)ncc12 [Example 86, 8-(2,4-Dimethoxyphenyl)-2-[(4-{[2-(dimethylamino)ethyl](methyl)amino}phenyl)amino]-5-ethynylpyrido[2,3-d]pyrimidin-7-one] was tested. Which IC50 [1] did it give?
A: The IC50 was under 1000 nM.

Q: And the IC50 [2]?
A: Its IC50 is 1000 to 3000 nM.

Q: What about the IC50 [3] of the same molecule?
A: Its IC50 is under 500 nM.

Q: What about the IC50 [4] of the same molecule?
A: Its IC50 is 500 to 1000 nM.

Q: With C#Cc1cc(=O)n([C@H]2CC[C@H](NC(C)=O)CC2)c2nc(Nc3ccc(N4CCN(C)CC4)cc3)ncc12 [Example 87, N-[(1r,4r)-4-(5-Ethynyl-2-{[4-(4-methylpiperazin-1-yl)phenyl]amino}-7-oxopyrido[2,3-d]pyrimidin-8-yl)cyclohexyl]acetamide] as the molecule, how does the IC50 [1] read?
A: Its IC50 is under 1000 nM.

Q: What about the IC50 [2] of the same molecule?
A: The IC50 was over 3000 nM.

Q: What about the IC50 [3] of the same molecule?
A: Its IC50 is under 500 nM.

Q: And the IC50 [4]?
A: Its IC50 is under 500 nM.

Q: Which IC50 [1] does the source give for C#Cc1cc(=O)n(-c2ccc(NC(=O)C=C)cc2)c2nc(Nc3ccccc3OC)ncc12 [Example 88, N-(4-(5-Ethynyl-2-((2-methoxyphenyl)amino)-7-oxopyrido[2,3-d]pyrimidin-8(7H)-yl)phenyl)acrylamide] here?
A: Its IC50 is 1000 to 10000 nM.

Q: And the IC50 [2]?
A: Its IC50 is over 3000 nM.

Q: What about the IC50 [3] of the same molecule?
A: The IC50 was over 3000 nM.

Q: What about the IC50 [4] of the same molecule?
A: Its IC50 is over 3000 nM.

Q: With C#Cc1cc(=O)n([C@H]2CC[C@H](NC(=O)c3ccnnc3)CC2)c2nc(Nc3ccc(N4CCN(C)CC4)cc3)ncc12 [Example 89, N-[(1r,4r)-4-(5-Ethynyl-2-{[4-(4-methylpiperazin-1-yl)phenyl]amino}-7-oxopyrido[2,3-d]pyrimidin-8-yl)cyclohexyl]pyridazine-4-carboxamide] as the molecule, how does the IC50 [1] read?
A: Its IC50 is under 1000 nM.

Q: What about the IC50 [2] of the same molecule?
A: The IC50 was over 3000 nM.

Q: What about the IC50 [3] of the same molecule?
A: The IC50 was under 500 nM.

Q: And the IC50 [4]?
A: The IC50 was under 500 nM.
